Reference: the NIST ThermoML archive (doi:10.1016/j.fluid.2007.07.016)
Numbers after ± are expanded uncertainties.

Assays:
[1] = Liquid; for viscosity: Capillary tube (Ostwald / Ubbelohde) method; for speed of sound: Linear variable-path acoustic interferometer
[2] = xn = mol fraction of the nth substance listed; details: 101 kPa, Liquid; for viscosity: Capillary tube (Ostwald / Ubbelohde) method; for speed of sound: Linear variable-path acoustic interferometer

Row | Structure (SMILES) | viscosity ([1]; 288.15 K, 101 kPa) | speed of sound ([1]; 288.15 K, 101 kPa) | viscosity ([1]; 298.15 K, 101.33 kPa) | speed of sound ([1]; 298.15 K, 101.33 kPa) | viscosity ([1]; 308.15 K, 101.33 kPa) | speed of sound ([1]; 308.15 K, 101.33 kPa) | viscosity ([1]; 318.15 K, 101.33 kPa) | speed of sound ([1]; 318.15 K, 101.33 kPa) | viscosity ([2]; 288.15 K, x1 = 1) | speed of sound ([2]; 288.15 K, x1 = 1) | viscosity ([2]; 298.15 K, x1 = 1) | speed of sound ([2]; 298.15 K, x1 = 1) | viscosity ([2]; 308.15 K, x1 = 1) | speed of sound ([2]; 308.15 K, x1 = 1) | viscosity ([2]; 318.15 K, x1 = 1) | speed of sound ([2]; 318.15 K, x1 = 1) | also measured
1 | Cc1ccccc1C [1,2-dimethylbenzene] | 0.8623 ± 0.0061 mPa·s | 1388.5 ± 1.7 m/s | 0.7576 ± 0.0053 mPa·s | 1350.3 ± 1.6 m/s | 0.669 ± 0.0048 mPa·s | 1321.4 ± 1.6 m/s | 0.5972 ± 0.0043 mPa·s | 1285.8 ± 1.6 m/s |  |  |  |  |  |  |  |  | 
2 | Cc1cc(C)cc(C)c1 [1,3,5-trimethylbenzene] | 0.7592 ± 0.0056 mPa·s | 1412.3 ± 1.7 m/s | 0.6572 ± 0.0049 mPa·s | 1369.8 ± 1.7 m/s | 0.5792 ± 0.0044 mPa·s | 1325.2 ± 1.7 m/s | 0.5066 ± 0.004 mPa·s | 1279 ± 1.6 m/s |  |  |  |  |  |  |  |  | 
3 | Cc1cccc(C)c1 [1,3-dimethylbenzene] | 0.6696 ± 0.0048 mPa·s | 1373.2 ± 1.7 m/s | 0.588 ± 0.0043 mPa·s | 1326.6 ± 1.6 m/s | 0.5229 ± 0.0039 mPa·s | 1281 ± 1.6 m/s | 0.4684 ± 0.0036 mPa·s | 1243 ± 1.5 m/s |  |  |  |  |  |  |  |  | 
4 | Cc1ccc(C)cc1 [1,4-dimethylbenzene] | 0.7084 ± 0.0051 mPa·s | 1357.5 ± 1.7 m/s | 0.611 ± 0.0044 mPa·s | 1316.4 ± 1.6 m/s | 0.5501 ± 0.004 mPa·s | 1268 ± 1.6 m/s | 0.4912 ± 0.0037 mPa·s | 1230.3 ± 1.5 m/s |  |  |  |  |  |  |  |  | 
5 | c1ccccc1 [benzene] | 0.693 ± 0.0049 mPa·s | 1352.4 ± 1.6 m/s | 0.6025 ± 0.0043 mPa·s | 1303.5 ± 1.6 m/s | 0.5395 ± 0.004 mPa·s | 1257.4 ± 1.5 m/s | 0.467 ± 0.0036 mPa·s | 1207.2 ± 1.5 m/s |  |  |  |  |  |  |  |  | 
6 | c1ccccc1 [benzene] + C1CCOC1 |  |  |  |  |  |  |  |  |  |  |  |  |  |  |  |  | viscosity ([2]; 288.15 K, x2 = 0): 0.693 ± 0.0049 mPa·s; speed of sound ([2]; 288.15 K, x2 = 0): 1352.4 ± 1.6 m/s; viscosity ([2]; 298.15 K, x2 = 0): 0.6025 ± 0.0044 mPa·s; speed of sound ([2]; 298.15 K, x2 = 0): 1303.5 ± 1.6 m/s; viscosity ([2]; 308.15 K, x2 = 0): 0.5395 ± 0.004 mPa·s; speed of sound ([2]; 308.15 K, x2 = 0): 1257.4 ± 1.5 m/s; viscosity ([2]; 318.15 K, x2 = 0): 0.467 ± 0.0037 mPa·s; speed of sound ([2]; 318.15 K, x2 = 0): 1207.2 ± 1.5 m/s
7 | C1CCOC1 [tetrahydrofuran] | 0.5129 ± 0.0039 mPa·s | 1323.1 ± 1.6 m/s | 0.458 ± 0.0035 mPa·s | 1276.6 ± 1.6 m/s | 0.4125 ± 0.0032 mPa·s | 1231.7 ± 1.6 m/s | 0.3762 ± 0.003 mPa·s | 1186.4 ± 1.5 m/s |  |  |  |  |  |  |  |  | speed of sound ([1]; 298.15 K, 101 kPa): 1277.6 ± 1.6 m/s; speed of sound ([1]; 308.15 K, 101 kPa): 1231.5 ± 1.6 m/s; speed of sound ([1]; 318.15 K, 101 kPa): 1187.2 ± 1.5 m/s
8 | C1CCOC1 [tetrahydrofuran] + Cc1cc(C)cc(C)c1 |  |  |  |  |  |  |  |  | 0.5129 ± 0.0039 mPa·s | 1323.1 ± 1.6 m/s | 0.458 ± 0.0036 mPa·s | 1277.6 ± 1.6 m/s | 0.4125 ± 0.0033 mPa·s | 1231.5 ± 1.6 m/s | 0.3762 ± 0.0031 mPa·s | 1187.2 ± 1.5 m/s | 
9 | C1CCOC1 [tetrahydrofuran] + Cc1ccc(C)cc1 |  |  |  |  |  |  |  |  | 0.5129 ± 0.0039 mPa·s | 1323.1 ± 1.6 m/s | 0.458 ± 0.0036 mPa·s | 1277.6 ± 1.6 m/s | 0.4125 ± 0.0033 mPa·s | 1231.5 ± 1.6 m/s | 0.3762 ± 0.0031 mPa·s | 1187.2 ± 1.5 m/s | 
10 | C1CCOC1 [tetrahydrofuran] + Cc1cccc(C)c1 |  |  |  |  |  |  |  |  | 0.5129 ± 0.0039 mPa·s | 1323.1 ± 1.6 m/s | 0.458 ± 0.0036 mPa·s | 1277.6 ± 1.6 m/s | 0.4125 ± 0.0033 mPa·s | 1231.5 ± 1.6 m/s | 0.3762 ± 0.0031 mPa·s | 1187.2 ± 1.5 m/s | 
11 | C1CCOC1 [tetrahydrofuran] + Cc1ccccc1C |  |  |  |  |  |  |  |  | 0.5129 ± 0.0039 mPa·s | 1323.1 ± 1.6 m/s | 0.458 ± 0.0036 mPa·s | 1277.6 ± 1.6 m/s | 0.4125 ± 0.0033 mPa·s | 1231.5 ± 1.6 m/s | 0.3762 ± 0.0031 mPa·s | 1187.2 ± 1.5 m/s | 
12 | Cc1ccccc1 [toluene] | 0.6456 ± 0.0046 mPa·s | 1358.5 ± 1.6 m/s | 0.5531 ± 0.0039 mPa·s | 1310.5 ± 1.6 m/s | 0.502 ± 0.0037 mPa·s | 1266.2 ± 1.5 m/s | 0.4379 ± 0.0034 mPa·s | 1221 ± 1.5 m/s |  |  |  |  |  |  |  |  | 
13 | Cc1ccccc1 [toluene] + C1CCOC1 |  |  |  |  |  |  |  |  |  |  |  |  |  |  |  |  | viscosity ([2]; 288.15 K, x2 = 0): 0.6456 ± 0.0047 mPa·s; speed of sound ([2]; 288.15 K, x2 = 0): 1358.5 ± 1.6 m/s; viscosity ([2]; 298.15 K, x2 = 0): 0.5531 ± 0.0041 mPa·s; speed of sound ([2]; 298.15 K, x2 = 0): 1310.5 ± 1.6 m/s; viscosity ([2]; 308.15 K, x2 = 0): 0.502 ± 0.0037 mPa·s; speed of sound ([2]; 308.15 K, x2 = 0): 1266.2 ± 1.5 m/s; viscosity ([2]; 318.15 K, x2 = 0): 0.4379 ± 0.0035 mPa·s; speed of sound ([2]; 318.15 K, x2 = 0): 1221 ± 1.5 m/s
